From US20110112151A1, “COMPOUND CAPABLE OF INHIBITING 11-BETA HYDROXYSTERIOD DEHYDROGENASE” (priority 2008, published 2011)
Read-outs that look alike come from different tables or passages of the source.

Key:
11β-HSD1 = target: T1, 11β-HSD1 (Homo sapiens, UniProt P28845); experiment: 11β-HSD1 HEK assay (cell based assay, SPA)
T1 construct: expressed in transfected cells; host or cells: HEK 293 (stably transfected, HEK 293/HSD11B1)
Experimental: 11β-HSD1 HEK Assay Protocol (Cell Based Assay)
11β-HSD1 activity is measured in whole HEK 293 cells stably transfected with the HSD11B1 gene. Cells are incubated in 96-well microplates in the presence of tritiated substrate. Enzyme activity is determined by measuring the amount of tritated product by scintillation proximity assay (SPA). Assay plates contain internal high and low controls to allow calculation of percentage inhibition.
1. […] 2. When the cells are 80% confluent the medium is removed from each well. 100 μl fresh, serum-free, medium containing ^3H-cortisone and test compound in 1% DMSO is added to each well*. Control wells are also dispensed. […] 3. The plate is incubated at 37° C. for the required time period. 4. 50 μl of media is removed from each well and transferred to a microplate containing 100 μl of a pre-incubated mixture of anti-cortisol antibody and SPA bead. The mixture is incubated with gentle shaking until equilibrium is reached, before transferring to a scintillation counter to establish the enzyme activity in each sample.
10 μl of compound is dispensed into each well of a 96-well microplate in 10% DMSO at 100 μM concentration. 90 μl media containing ^3H-cortisone is added to each well. The compound/media/substrate mixture is then transferred to the assay plate containing the cells. […]

[1] = HEK293, at 1 μM, whole HEK 293 cells stably transfected with the HSD11B1 gene, 3H-cortisone substrate, read-out: Activity (inhibition of 11β-HSD1)

T1 sequence (P28845 whole entry): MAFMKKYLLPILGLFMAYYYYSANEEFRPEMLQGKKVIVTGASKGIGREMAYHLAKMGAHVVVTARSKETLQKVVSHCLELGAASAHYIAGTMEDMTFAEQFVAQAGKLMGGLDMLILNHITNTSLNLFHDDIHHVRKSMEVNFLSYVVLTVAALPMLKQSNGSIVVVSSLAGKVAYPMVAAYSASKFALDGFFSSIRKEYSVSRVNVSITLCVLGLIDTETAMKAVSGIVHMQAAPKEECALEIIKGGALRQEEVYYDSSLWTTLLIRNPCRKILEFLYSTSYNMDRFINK

| melting point [°C] | inhibition at 1 µM (11β-HSD1; [1]) [%] | SMILES | inhibition at 1 µM (11β-HSD1; HEK293, read-out: Activity (inhibition of 11β-HSD1)) [%] | Activity (inhibition of 11β-HSD1) (11β-HSD1; at 1 μM, whole HEK 293 cells stably transfected with the HSD11B1 gene, 3H-cortisone substrate) |
| --- | --- | --- | --- | --- |
| 45 to 47 | > 60 | O=C(CSCc1cccnc1)C12CC3CC(CC(C3)C1)C2 [Example 7, 1-Adamantan-1-yl-2-(pyridin-3-ylmethylsulfanyl)-ethanone] | – | – |
| 112 to 113 | > 60 | Cn1nnnc1SCC(=O)C12CC3CC(CC(C3)C1)C2 [Example 92, 1-(Adamantan-1-yl)-2-[(1-methyl-1,2,3,4-tetrazol-5-yl)sulfanyl]ethanone] | – | – |
| 119 to 123 | > 60 | O=C(C[S+]([O-])Cc1ccncc1)C12CC3CC(CC(C3)C1)C2 (stereo not shown) [Example 84, 1-Adamantan-1-yl-2-(pyridin-4-ylmethanesulfinyl)-ethanone] | – | – |
| 107 to 108.5 | > 60 | O=C(/C=C/c1cccnc1)C12CC3CC(CC(C3)C1)C2 [Example 38, 1-Adamantan-1-yl-3-pyridin-3-yl-propenone] | – | – |
| 116 to 119 | > 60 | O=C(C[S+]([O-])Cc1cccnc1)C12CC3CC(CC(C3)C1)C2 (stereo not shown) [Example 8, 1-Adamantan-1-yl-2-(pyridin-3-ylmethanesulfinyl)-ethanone] | – | – |
| 88 to 90 | 20 to 60 | O=C(CSCc1ccc(Cl)nc1)C12CC3CC(CC(C3)C1)C2 [Example 62, 1-Adamantan-1-yl-2-(6-chloro-pyridin-3-ylmethylsulfanyl)-ethanone] | – | – |
| 75 to 76 | > 60 | Cc1cccc([S+]([O-])CC(=O)C23CC4CC(CC(C4)C2)C3)n1 (stereo not shown) [Example 31, 1-(adamantan-1-yl)-2-[(6-methylpyridine-2-)sulfinyl]ethan-1-one] | – | – |
| 62.5 to 64.5 | > 60 | CN(C)C(=O)c1ccc(SCC(=O)C23CC4CC(CC(C4)C2)C3)nc1 [Example 35, 6-(2-Adamantan-1-yl-2-oxo-ethylsulfanyl)-N,N-dimethyl-nicotinamide] | – | – |
| 138 to 139 | 20 to 60 | O=C(CS(=O)(=O)c1ccc(C(F)(F)F)cn1)C12CC3CC(CC(C3)C1)C2 [Example 67, 1-Adamantan-1-yl-2-(5-trifluoromethyl-pyridine-2-sulfonyl)-ethanone] | – | – |
| 177 to 178 | < 20 | O=C(CSc1n[nH]c(-c2ccco2)n1)C12CC3CC(CC(C3)C1)C2 [Example 90, 1-(Adamantan-1-yl)-2-{[5-(furan-2-yl)-1H-1,2,4-triazol-3-yl]sulfanyl}ethanone] | – | – |
| 184 to 185.5 | > 60 | CNC(=O)c1ccc(SCC(=O)C23CC4CC(CC(C4)C2)C3)nc1 [Example 36, 6-(2-Adamantan-1-yl-2-oxo-ethylsulfanyl)-N-methyl-nicotinamide] | – | – |
| 172.5 to 174 | > 60 | O=C(Nc1nnc([S+]([O-])CC(=O)C23CC4CC(CC(C4)C2)C3)s1)C1CC1 (stereo not shown) [Example 96, N-(5-{[2-(Adamantan-1-yl)-2-oxoethane]sulfinyl}-1,3,4-thiadiazol-2-yl)cyclopropanecarboxamide] | – | – |
| 216 to 218 | > 60 | CC(=O)Nc1nnc([S+]([O-])CC(=O)C23CC4CC(CC(C4)C2)C3)s1 (stereo not shown) [Example 94, N-(5-{[2-(Adamantan-1-yl)-2-oxoethane]sulfinyl}-1,3,4-thiadiazol-2-yl)acetamide] | – | – |
| 146 to 147.5 | < 20 | Cn1c(SCC(=O)C23CC4CC(CC(C4)C2)C3)nc2ccccc21 [Example 14, 1-Adamantan-1-yl-2-(1-methyl-1H-benzoimidazol-2-ylsulfanyl)-ethanone] | – | – |
| 150 to 151 | > 60 | CN(C)c1nnc(SCC(=O)C23CC4CC(CC(C4)C2)C3)s1 [Example 104, 1-(Adamantan-1-yl)-2-{[5-(dimethylamino)-1,3,4-thiadiazol-2-yl]sulfanyl}ethan-1-one] | – | – |
| 141 to 142 | > 60 | O=C(CSc1ccc(C(F)(F)F)cn1)C12CC3CC(CC(C3)C1)C2 [Example 66, 1-Adamantan-1-yl-2-(5-trifluoromethyl-pyridin-2-ylsulfanyl)-ethanone] | – | – |
| 87 to 88.5 | > 60 | O=C(C[S+]([O-])Cc1ccccn1)C12CC3CC(CC(C3)C1)C2 (stereo not shown) [Example 17, 1-Adamantan-1-yl-2-(pyridin-2-ylmethanesulfinyl)-ethanone] | – | – |
| 96 to 97.5 | > 60 | Cn1c(SCC(=O)C23CC4CC(CC(C4)C2)C3)nnc1C1CC1 [Example 101, 1-(Adamantan-1-yl)-2-[(5-cyclopropyl-4-methyl-4H-1,2,4-triazol-3-yl)sulfanyl]ethan-1-one] | – | – |
| – | < 20 | Cn1ccnc1[S+]([O-])CC(=O)C1(c2ccc(Cl)cc2)CC1 (stereo not shown) [Example 2, 1-[1-(4-Chloro-phenyl)-cyclopropyl]-2-(1-methyl-1H-imidazole-2-sulfinyl)-ethanone] | – | – |
| – | > 60 | Cn1ccnc1SCC(=O)C(C)(C)c1ccc(Cl)cc1 [Example 52, 3-(4-Chloro-phenyl)-3-methyl-1-(1-methyl-1H-imidazol-2-ylsulfanyl)-butan-2-one] | – | – |
| – | < 20 | O=C(CS(=O)(=O)c1ccccn1)C1(c2ccc(Cl)cc2)CC1 [Example 6, 1-[1-(4-Chloro-phenyl)-cyclopropyl]-2-(pyridine-2-sulfonyl)-ethanone] | – | – |
| – | < 20 | Cc1cc(C)c(C(=O)CSc2ccccn2)c(C)c1 [Example 73, 2-(Pyridin-2-ylsulfanyl)-1-(2,4,6-trimethyl-phenyl)-ethanone] | – | – |
| – | 20 to 60 | Cn1cnnc1SCC(=O)C(C)(C)c1ccc(Cl)cc1 [Example 99, 3-(4-Chlorophenyl)-3-methyl-1-(4-methyl-4H-1,2,4-triazol-3-ylthio)butan-2-one] | – | – |
| – | 20 to 60 | Cn1ccnc1SCC(=O)C1(c2ccc(Cl)cc2)CCCC1 [Example 41, 1-[1-(4-Chloro-phenyl)-cyclopentyl]-2-(1-methyl-1H-imidazol-2-ylsulfanyl)-ethanone] | – | – |
| – | 20 to 60 | O=C(COc1cncc(Cl)c1)C12CC3CC(CC(C3)C1)C2 [Example 57, 1-Adamantan-1-yl-2-(5-chloro-pyridin-3-yloxy)-ethanone] | – | – |
| – | < 20 | O=C(C[S+]([O-])c1ccccn1)C1(c2ccc(Cl)cc2)CCCCC1 (stereo not shown) [Example 49, 1-[1-(4-Chloro-phenyl)-cyclohexyl]-2-(pyridine-2-sulfinyl)-ethanone] | – | – |
| – | 20 to 60 | O=C(CSc1ccccn1)C1(c2ccc(Cl)cc2)CCCCC1 [Example 47, 1-[1-(4-Chloro-phenyl)-cyclohexyl]-2-(pyridin-2-ylsulfanyl)-ethanone] | – | – |
| – | 20 to 60 | O=C(CSc1ccccn1)C1(c2ccc(Cl)cc2)CCC1 [Example 20, 1-[1-(4-Chloro-phenyl)-cyclobutyl]-2-(pyridin-2-ylsulfanyl)-ethanone] | – | – |
| – | – | Cn1ccnc1S(=O)(=O)CC(=O)C1(c2ccc(Cl)cc2)CCCCC1 [Example 45, 1-[1-(4-Chloro-phenyl)-cyclohexyl]-2-(1-methyl-H-imidazole-2-sulfonyl)-ethanone] | – | b (from 20 to 60% inhibition of 11β-HSD1 at 1 μM) |

| SMILES | melting point [°C] | inhibition at 1 µM (11β-HSD1; [1]) [%] | inhibition at 1 µM (11β-HSD1; HEK293, read-out: Activity (inhibition of 11β-HSD1)) [%] | Activity (inhibition of 11β-HSD1) (11β-HSD1; at 1 μM, whole HEK 293 cells stably transfected with the HSD11B1 gene, 3H-cortisone substrate) |
| --- | --- | --- | --- | --- |
| Cc1nnc(SCC(=O)C23CC4CC(CC(C4)C2)C3)s1 [Example 78, 1-Adamantan-1-yl-2-(5-methyl-[1,3,4]thiadiazol-2-ylsulfanyl)-ethanone] | 102 to 105 | – | > 60 | – |
